Where two headings read alike, the source gives them in different places.
Tests used:
[1] = target: T1, A2A adenosine receptor (Rattus norvegicus, UniProt P30543); assay: Receptor binding assay with [3H]MSX-2 on A2A-adenosine receptors; parameters: tissue Pel Freez Company (Rogers, Ark., USA); host or cells: rat brain striatum membranes; settings: for Ki: Table 2, [3H]MSX-2, read-out: A2A K1
Description: (§1) The data of the biological tests that are cited below results from radioligand-binding assays on A1, A2A, A2B and A3 adenosine receptors (ARs).
(§2) The following selective radioligands are used in the biological tests: • [^3H]CCPA (for A1 ARs) [Klotz et al., Naunyn-Schmiedeberg's Arch. Pharmacol., 340, 679 (1989)] • [^3]MSX-2 (for A2A ARs) [Muiller et al., Eur. J. Pharm. Sci., 10, 259 (2000)] • [^3H]ZM241385 (for A2B ARs_[X.-D. Ji, K. A. Jacobson, Drug Des. Discov., 16, 217 (1999)] • [^3H]PSB-11 (new antagonistic radioligand for human A3 ARs) [M. Dieckmann, M. Thorand, V. Ozola, C. E. Muiller, in Vorbereitung [Preparation] (2001)]. • [^125I]AB-MECA (for rat-A3 ARs) [Olah et al., Mol. Pharmacol., 45, 978 (1994)]. Description of the Assays That are Used for Testing Substances Production of Tissue Preparations Made from Rat Brains
(§3) The cell decomposing of the cerebral cortex is carried out with a glass-Teflon homogenizer (stages 5-6, 10 seconds) in 0.32 M saccharose solution. The membranes are purified over various centrifuging steps. With centrifuging at 600 g, 4° C., for 10 minutes, a large amount of cell debris is separated via the P1 fraction, and the supernatant (P2 fraction) is further worked up: in the subsequent three centrifuging steps (35,000 g; 4° C.; 60 minutes), a pellet is produced that is resuspended in 50 mmol of TRIS buffer, pH 7.4 with the Ultraturrax (stages 3-4, 3 seconds); the respective supernatant is discarded. The striata are added to cold TRIS buffer, homogenized with the Ultraturrax in stages 3 to 4-(3 seconds) and then centrifuged at 35,000 g, 4° C., for 20 minutes. The supernatant is discarded, and the pellet is resuspended in 50 mmol of TRIS buffer (50 mmol, pH 7.4). The washing process is repeated twice more. The membrane preparations are stored at −80° C. and are held for several months. The cerebral cortex membrane preparation is used for A1-radioligand binding studies, and the striatum is used for A2A-radiologiand binding studies.
(§4) The test substances are dissolved in DMSO to 10 mmol. The final concentration of DMSO in the assay is 2.5% for A1- and A2A-adenosine receptor assays and 1-2% for A2B- and A3-assays. Dilution series of the test substances are produced from the stock solution. Five to eight different test concentrations, which comprise 3 orders of magnitude (e.g., 1 nm to 1000 nm), are used.
Receptor Binding Assay with [^3H]MSX-2 on A2A-Adenosine Receptors:
• 25 μl of DMSO, NECA (800 μmol) or test substance dilutions • 775 μl of TRIS buffer (for production, see above) • 100 μl of [^3H]MSX-2 (final concentration 1 nmol; KD value 8 nmol) • 100 μl of rat-striatum-membrane preparation or preparation of CHO cells, which express the human A2A receptor, incubated with 0.12 IE adenosine-deaminase (protein concentration: 25-75 μg/ml) • 1000 μl of final volume
The assay is performed according to the instructions of the receptor-binding assay with [^3H]CCPA with consideration of the amounts and solutions that are listed above. The incubation time is 30 minutes at 23° C. in an oscillating water bath. The glass fiber filter is introduced 30 minutes before use in 0.5% PEI solution.
(§5) The mean value is calculated from three independent experiments. IC50 and K, values are obtained from the Cheng-Prusoff equation, the concentration and the KD value of the radioligand. For calculation, the program GraphPadPrism™, Version 3.0 (GraphPad, San Diego, Calif., USA), was used.

[2] = target: T2, A1 adenosine receptor (Rattus norvegicus, UniProt P25099); assay: Radioligand binding with [3H]CCPA on A1-adenosine receptors, rat brain cortex membranes; parameters: tissue Pel Freez Company (Rogers, Ark., USA); host or cells: rat brain cerebral cortex membranes; settings: for Ki: Table 2, [3H]CCPA, read-out: A1 K1
T2 sequence (P25099 1-326): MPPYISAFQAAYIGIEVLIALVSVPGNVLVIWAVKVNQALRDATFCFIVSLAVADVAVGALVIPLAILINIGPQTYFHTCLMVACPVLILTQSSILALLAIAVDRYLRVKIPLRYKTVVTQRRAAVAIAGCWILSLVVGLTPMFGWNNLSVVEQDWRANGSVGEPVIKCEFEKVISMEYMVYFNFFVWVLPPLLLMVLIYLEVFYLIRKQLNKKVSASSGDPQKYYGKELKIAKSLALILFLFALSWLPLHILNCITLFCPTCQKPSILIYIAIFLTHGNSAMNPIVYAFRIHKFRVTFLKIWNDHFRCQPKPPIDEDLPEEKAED
Description: as §1, §2
For the preparations, deep-frozen rat brains of the Pel Freez Company (Rogers, Ark., USA) are used. The rat brains are thawed in 0.32 M saccharose solution, the cortex is cut off, and the striata are prepared outside.
as §3, §4
Radioligand Binding Studies with [^3H]CCPA on A1-Adenosine Receptors:
The mixture is incubated for 90 minutes in an oscillating water bath at 23° C. Then, it is filtered off with a Brandel cell-harvester and washed twice more with ice-cooled TRIS buffer, 50 mmol, pH 7.4 (3 ml). The filter plates are conveyed in scintillation vials, doused with 2.5 ml of Ultima Gold Scintillation cocktail and incubated for at least 6 hours before they are measured in a scintillation counter.
as §5

[3] = target: T2, A1 adenosine receptor; settings: Table 1, literature values, cited from earlier work
[4] = target: T1, A2A adenosine receptor; settings: Table 1, literature values; cited from earlier work

T1 sequence (P30543 whole entry): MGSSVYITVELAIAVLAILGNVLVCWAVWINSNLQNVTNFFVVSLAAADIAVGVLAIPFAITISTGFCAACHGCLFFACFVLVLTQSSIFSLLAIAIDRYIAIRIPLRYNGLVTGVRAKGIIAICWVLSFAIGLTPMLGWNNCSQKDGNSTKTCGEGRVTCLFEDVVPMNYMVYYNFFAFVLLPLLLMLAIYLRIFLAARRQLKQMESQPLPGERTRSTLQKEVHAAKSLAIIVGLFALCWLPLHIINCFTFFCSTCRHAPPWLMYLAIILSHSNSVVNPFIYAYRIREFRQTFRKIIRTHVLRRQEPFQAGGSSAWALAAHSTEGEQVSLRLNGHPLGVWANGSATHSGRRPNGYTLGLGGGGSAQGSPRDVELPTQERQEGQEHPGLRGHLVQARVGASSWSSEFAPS

| Compound | A2A % inhib. @ 10 μmol [1] | Ki [1] [µM] | Ki [2] [µM] | melting point [°C] | A1 % inhib. @ 10 μmol [2] | A1 % Inhibition @ 10 μmol ([3]; 10 μmol) | Ki ([3]; read-out: A1 K1) [µM] | A2A % Inhibition @ 25 μmol [4] |
| --- | --- | --- | --- | --- | --- | --- | --- | --- |
| 4-(chloropyrazolyl)-1-(3-phenylpropyl)-[1,2,4-]triazolo[4,3-a]quinoxaline [Y = C—CH2—CH2—CH2-Ph, R5 = H, R6 = Cl] | (6%) | > 10 | 0.006 | – | – | – | – | – |
| COc1ccc2c(c1)nc(-c1cc(Cl)n[nH]1)c1nnc(Cc3cccs3)n12 [4-[3(5)-Chloro-1H-pyrazol-5(3)-yl]-7-methoxy-1-(2-thienylmethyl)-[1,2,4]triazolo[4,3-a]-quinoxaline] | – | 4.96 | 0.9 | – | – | – | – | – |
| Clc1cc(-c2nc3ccccc3n3c(-c4ccoc4)nnc23)n[nH]1 [Y = C-(3-Furyl), R5 = H, R6 = Cl] | – | 1.26 | 0.32 | – | – | – | – | – |
| Cn1nc(-c2nc3ccccc3n3c(Cc4cccs4)nnc23)cc1Cl [Y = C—CH2-(2-Thienyl), R5 = CH3, R6 = Cl, 4-(5-Chloro-1H-1-methyl-pyrazol-3-yl)-1-(2-thienylmethyl)-[1,2,4]triazolo[4,3-a]-quinoxaline] | – | 8.61 | 0.21 | 205 to 207 | – | – | – | – |
| COc1ccc2c(c1)nc(-c1cc(Cl)[nH]n1)c1nncn12 [Y = C—H, R3 = OCH3, R5 = H, R6 = Cl, 4-[3(5)-Chloro-1H-pyrazol-5(3)-yl]-7-methoxy-[1,2,4]triazolo[4,3-a]-quinoxaline] | (1%) | > 10 | > 10 | – | (13%) | – | – | – |
| Clc1cc(-c2nc3ccccc3n3cnnc23)[nH]n1 [Y = C—H, R5 = H, R6 = Cl] | (21%) | > 10 | > 10 | – | (35%) | (35%) | > 10 | (21%) |
| Clc1cc(-c2nc3ccccc3n3nnnc23)n[nH]1 [Y = N, R5 = H, R6 = Cl, 4-[3(5)-Chloro-1H-pyrazol-5(3)-yl]tetrazolo[1,5-a]quinoxaline] | – | 6.13 | 0.67 | – | – | – | – | – |
